According to patent US20080014253A1, “Lipid-Based Drug Delivery Systems Containing Unnatural Phospholipase A2 Degradable Lipid Derivatives and the Therapeutic Uses Thereof” (priority 2004, published 2008):
“Also recorded” adds a separate entry of the source.

Legend:
[1] = format: physicochemical; settings: for Main-transition Tm (peak position) / Pre-transition Tm (peak position): multilamellar liposomes, scan rate 20° C./h; for pre-transition of the lipid membrane (Cp-curves): one-component multilamellar liposomes
Experimental: FIG. 3. Heat capacity, CP, obtained using differential scanning calorimetry at a scan rate of 20° C./h for 0.15 mM multilamellar liposomes: (A) 1-O-DPPC′ (left), DPPC (middle), and 1-O-DPPC (right). (B) 1-O-DPPG′ (left), DPPG (middle) and 1-O-DPPG (right).
By replacing the ester linkage in the C-1 position with an ether bond, these unnatural phospholipids can furthermore be used as novel prodrug anticancer lipids to make liposomal microcarriers that can be degraded to active anticancer lysoetherlipids by PLA2 [27]. The lipid prodrug analogs (1-O-DPPC and 1-O-DPPG) were synthesized as described earlier. 1,2-dipalmitoyl-sn-glycero-3-phosphocholine (DPPC), 1,2-dipalmitoyl-sn-glycero-3-phosphoglycerol (DPPG), and 1,2-distearoyl-sn-glycero-3-phosphoethanolamine poly(ethylene glycol)2000 (DSPE-PEG2000) were purchased from Avanti Polar Lipids, AL, USA. Multi- and unilamellar liposomes were hydrated in a HEPES buffer solution (10 mM HEPES, 110 mM KCl, 1 mM NaN3, 30 μM CaCl2, 10 μM NaEDTA, pH 7.5) and prepared as described in previous work. Differential scanning calorimetry was carried out in the upscan mode at a scanrate of 20° C./h using multilamellar liposomes. The PLA2 lag time measurements on 1-O-DPPC′ unilamellar liposomes incorporated with small amounts of 1-O-DPPG′ or DSPE-PEG2000 lipids were performed in the gel-to-fluid main phase transition range and the degree of lipid hydrolysis was analyzed using HPLC techniques.
The heat capacity (Cp) curves obtained using differential scanning calorimetry are shown in FIG. 3 for one-component 1-O-DPPC′ and 1-O-DPPG′ multilamellar liposomes. The Cp-curves show a main peak at 40.1° C. and 40.6° C. reflecting the chain disordering gel-to-fluid main phase transition of the 1-O-DPPC′ and 1-O-DPPG′ lipid membranes, respectively. […] This leads to the formation of low temperature ordered and non-corrugated gel phase (Lβ) that prevails until the unset of the main transition giving rise to a concomitant increase in the integrated melting enthalpy of the main transition (Table 1). Since the 1-O-DPPC′ and 1-O-DPPG′ lipids undergo a transition from an ordered configuration in the low temperature non-corrugated gel phase to a disordered configuration in the high temperature fluid phase without passing through the ripple phase, the integrated melting enthalpy is expected to be higher than for the natural DPPC and DPPG ripple phase forming lipids, which undergo a transition to the fluid phase from a ripple phase with a higher energy than the non-corrugated gel phase. In order to exclude the possibility that the abolished ripple transition is due to having an ether bond in the C-1 position, we have in FIG. 3 also shown Cp-curves obtained on 1-O-DPPC and 1-O-DPPG multilamellar liposomes. Clearly, these Cp-curves show the same characteristic phase behavior as the natural DPPC and DPPG lipids with a pre-transition a few degrees below the main phase transition peak underlining that it is the position of the phosphate head group in the C-3 position on the natural phospholipids that is crucial for ripple formation.

human secretory PLA2 = target: T1, human secretory PLA2 (Homo sapiens, UniProt P14555); assay: Hydrolysis of unilamellar liposomes by human secretory PLA2 from human tear fluid; format: biochemical
T1 construct: from tissue; host or cells: freshly prepared human tear fluid
T1 sequence (P14555 21-144): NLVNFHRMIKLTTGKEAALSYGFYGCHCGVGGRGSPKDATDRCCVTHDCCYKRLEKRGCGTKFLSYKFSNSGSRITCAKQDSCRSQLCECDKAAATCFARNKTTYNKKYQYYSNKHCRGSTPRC
Experimental: FIG. 4. Characteristic reaction time profiles at 40° C. for PLA2 hydrolysis of unilamellar. (A) 0.15 mM 1-O-DPPC′ liposomes incubated with 150 nM PLA2 (A. piscivorus piscivorus). (B) 0.15 mM 1-O-DPPG′ liposomes incubated with human secretory PLA2 from 20 μL freshly prepared human tear fluid (B). The PLA2 hydrolysis reaction is monitored by intrinsic fluorescence (solid line) from the enzyme and 90° static light scattering (dashed lines) from the lipid suspension. After adding PLA2 to the equilibrated liposome suspension a characteristic lag time, τ, follows before a sudden increase in the catalytic activity takes place (A).
FIG. 6. (A) PLA2 (A. piscivorus piscivorus) hydrolysis of 1-O-DPPC′ liposomes containing 0 mol % (▪), 2 mol % (▴), and 10 mol % (∘) 1-O-DPPG′ lipids, and 5 mol % (▾) DSPE-PEG2000 polymer lipids determined by HPLC [28]. The percent lipid hydrolysis is determined 1000 s after the unset of the burst. The concentration of the liposomes was 0.15 mM and the concentration of PLA2 was 150 nM. (B) Hydrolysis of 1-O-DPPG′ unilamellar liposomes determined by HPLC [28]. The PLA2 catalyzed lipid hydrolysis is determined as a function of time after addition of 20 μL freshly prepared human tear fluid to 0.15 mM 1-O-DPPG′ liposomes. […]

Compound	Main-transition ΔHm (melting enthalpy) [1]	Main-transition Tm (peak position) [1]	Pre-transition ΔH (melting enthalpy) [1]	Pre-transition Tm (peak position) [1]	pre-transition of the lipid membrane (Cp-curves) [1]	onset of hydrolysis / lag time (human secretory PLA2; 0.15 mM liposomes, 20 μL human tear fluid, 40° C.)	activity of human secretory PLA2 towards liposomes (human secretory PLA2; liposomes formed by the lipid)
(S)-1-O-hexadecyl-3-hexadecanoyl-glycero-2-phosphoglycerol [1-O-DPPG′]	11.3 kcal/mol	40.6 °C	–	–	abolished	immediate hydrolysis; also recorded: becomes active immediately after addition	high activity; also recorded: superior substrates
CCCCCCCCCCCCCCCCOC[C@H](COP(=O)([O-])OCC[N+](C)(C)C)OC(=O)CCCCCCCCCCCCCCC [1-O-DPPC, 1-O-hexadecyl-2-hexadecanoyl-sn-glycero-3-phosphocholine]	8.5 kcal/mol	42.6 °C	0.84 kcal/mol	32.0 °C	–	–	–
CCCCCCCCCCCCCCCCOC[C@@H](COC(=O)CCCCCCCCCCCCCCC)OP(=O)([O-])OCC[N+](C)(C)C [1-O-DPPC′, (S)-1-O-hexadecyl-3-hexadecanoyl-glycero-2-phosphocholine]	12.8 kcal/mol	40.1 °C	–	–	abolished	–	–
1-O-hexadecyl-2-hexadecanoyl-sn-glycero-3-phosphoglycerol [1-O-DPPG]	9.1 kcal/mol	41.8 °C	0.58 kcal/mol	34.1 °C	–	–	–

Now from value to compound, other results behind:

Main-transition ΔHm (melting enthalpy) [1]	Main-transition Tm (peak position) [1]	Pre-transition ΔH (melting enthalpy) [1]	Pre-transition Tm (peak position) [1]	Compound	pre-transition of the lipid membrane (Cp-curves) [1]	onset of hydrolysis / lag time (human secretory PLA2; 0.15 mM liposomes, 20 μL human tear fluid, 40° C.)	activity of human secretory PLA2 towards liposomes (human secretory PLA2; liposomes formed by the lipid)
9.8 kcal/mol	40.6 °C	1.31 kcal/mol	34.3 °C	CCCCCCCCCCCCCCCC(=O)OC[C@H](COP(=O)(O)OCC(O)CO)OC(=O)CCCCCCCCCCCCCCC (stereo partly drawn) [DPPG, 1,2-dipalmitoyl-sn-glycero-3-phosphoglycerol]	–	–	–
8.7 kcal/mol	40.5 °C	1.2 kcal/mol	31.9 °C	CCCCCCCCCCCCCCCC(=O)OC[C@H](COP(=O)([O-])OCC[N+](C)(C)C)OC(=O)CCCCCCCCCCCCCCC [DPPC, 1,2-dipalmitoyl-sn-glycero-3-phosphocholine]	–	–	–
